Experimental findings from patent US9018208B2, “Heterocycles as potassium channel modulators” (Icagen Inc., priority 2007, dated 2015) are described below.

The first assay deals with SH-SY5Y M-currents (KCNQ2, KCNQ3 and KCNQ5). The assay can be described thus: SH-SY5Y native cell line FLIPR assay (voltage-sensitive dye DiBAC). Conditions: FLIPR assay, SH-SY5Y native cell line; Table 1; read-out: SH-SY5Y EC50. The format is cell-based, mouse neuroblastoma, rat glioma hybrid cell line. An excerpt:
SH-SY5Y cells, a mouse neuroblastoma, rat glioma hybrid cell line, functionally express M-currents (Robbins et al., J. Physiol. 451: 159-85 (1992). SH-SY5Y M-currents are likely comprised, at least in part, of KCNQ2, KCNQ3 and KCNQ5, since these genes are reportedly robustly expressed in differentiated SH-SY5Y cells (Selyanko et al., J. Neurosci. 19(18): 7742-56 (1999); Schroeder et al., J. Biol. Chem. 275(31): 24089-95 (2000)) and KCNQ3 dominant-negative constructs reduce M-current density in these cells (Selyanko et al., J. Neurosci. 22(5): RC212 (2002).
SH-SY5Y were maintained in DMEM (high glucose) supplemented with 10% fetal bovine serum, 0.05 mM pyridoxine, 0.1 mM hypoxanthine, 400 nM aminopterin, […], 50 μgml^−1 gentamycin and 10 mM HEPES, in an incubator at 37° C. with a humidified atmosphere of 5% CO2. Cells were plated in 96 well plates differentiated by addition of 10 μM PGE1 and 50 μM isomethylbutylxanthine to the growth media prior to study.
Differentiated SH-SY5Y cells were loaded with voltage-sensitive dye by incubation in Earls Balanced Salt Solution (EBSS) containing […] DiBAC for 1 h. Following loading, drug solution containing […] DiBAC was added to each well. Changes in fluorescence were measured every 30 s for 25 min. The maximum change in fluorescence was measured and expressed as a percentage of the maximum response obtained in the presence of a positive control agent.
Turning to `Cc1cccc2nc(NC(=O)C(F)(F)F)cn12` [Compound 8, 2,2,2-trifluoro-N-(5-methylimidazo[1,2-a]pyridin-2-yl)acetamide], the EC50 fell in the range of 3000 to 10000 nM.
For the compound `Cc1cccc2nc(NC(=O)CC(C)(C)C)cn12` [Compound 9, 3,3-dimethyl-N-(5-methylimidazo[1,2-a]pyridin-2-yl)butanamide], the EC50 lay within 3000 to 10000 nM.
For `O=C(Nc1cn2cc(F)ccc2n1)C(F)(F)F` [Compound 10, 2,2,2-trifluoro-N-(6-fluoroimidazo[1,2-a]pyridin-2-yl)acetamide], the EC50 is 3000 to 10000 nM.
As to `O=C(Nc1nc2ccc(F)cn2c1I)C(F)(F)F` [Compound 11, 2,2,2-trifluoro-N-(6-fluoro-3-iodoimidazo[1,2-a]pyridin-2-yl)acetamide], the EC50 lay within 3000 to 10000 nM.
Turning to `O=C(Nc1cn2c(C(F)(F)F)cccc2n1)C(F)(F)F` [Compound 12, 2,2,2-trifluoro-N-(5-(trifluoromethyl)imidazo[1,2-a]pyridin-2-yl)acetamide], the EC50 is 3000 to 10000 nM.
The same measure, in the same setting: the value for `O=C(Cc1ccc(F)cc1)Nc1cn2c(C(F)(F)F)cccc2n1` [Compound 13, 2-(4-fluorophenyl)-N-(5-(trifluoromethyl)imidazo[1,2-a]pyridin-2-yl)acetamide] was 3000 to 10000 nM; that for `CC(C)(C)CC(=O)Nc1nc2ccc(F)cn2c1C1CC1` [Compound 14, N-(3-cyclopropyl-6-fluoroimidazo[1,2-a]pyridin-2-yl)-3,3-dimethylbutanamide] was 500 to 3000 nM.
Turning to `CC(C)(C)CC(=O)Nc1nc2ccc(F)cn2c1CC(C)(C)C` [Compound 15, N-(6-fluoro-3-neopentylimidazo[1,2-a]pyridin-2-yl)-3,3-dimethylbutanamide], the EC50 lay within 500 to 3000 nM.
Regarding `CC(C)(C)CC(=O)Nc1nc2ccc(F)cn2c1Cc1ccc(F)cc1` [Compound 16, N-(6-fluoro-3-(4-fluorobenzyl)imidazo[1,2-a]pyridin-2-yl)-3,3-dimethylbutanamide], the EC50 is under 500 nM.
Still for that read-out and setting: the value for `CC(C)(C)Cc1c(NC(=O)Cc2ccc(F)cc2)nc2ccc(F)cn12` [Compound 17, N-(6-fluoro-3-neopentylimidazo[1,2-a]pyridin-2-yl)-2-(4-fluorophenyl) acetamide] was under 500 nM.
Regarding `O=C(Cc1ccc(F)cc1)Nc1nc2ccc(F)cn2c1Cc1ccc(F)cc1` [Compound 18, N-(6-fluoro-3-(4-fluorobenzyl)imidazo[1,2-a]pyridin-2-yl)-2-(4-fluorophenyl)acetamide], the EC50 was under 500 nM.
In the case of `CC(C)(C)Cc1c(NC(=O)Cc2ccc(F)cc2)nc2ccc(C(F)(F)F)cn12` [Compound 21, 2-(4-fluorophenyl)-N-(3-neopentyl-6-(trifluoromethyl)imidazo[1,2-a]pyridin-2-yl)acetamide], the EC50 was under 500 nM.
On to `CC(C)(C)Cc1c(NC(=O)Cc2ccc(Oc3ccccc3)cc2)nc2ccc(C(F)(F)F)cn12` [Compound 22, N-(3-neopentyl-6-(trifluoromethyl)imidazo[1,2-a]pyridin-2-yl)-2-(4-phenoxyphenyl)acetamide], for which the EC50 was under 500 nM.
Same read-out and setting: the value for `CC(C)(C)Cc1c(NC(=O)Cc2cccc(OC(F)(F)F)c2)nc2ccc(C(F)(F)F)cn12` [Compound 25, N-(3-neopentyl-6-(trifluoromethyl)imidazo[1,2-a]pyridin-2-yl)-2-(3-(trifluoromethoxy)phenyl)acetamide] was under 500 nM.
For the compound `CC(C)(C)Cc1c(NC(=O)Cc2ccc(OC(F)(F)F)cc2)nc2ccc(C(F)(F)F)cn12` [Compound 26, N-(3-neopentyl-6-(trifluoromethyl)imidazo[1,2-a]pyridin-2-yl)-2-(4-(trifluoromethoxy)phenyl)acetamide], the EC50 is under 500 nM.
Still for that read-out and setting: the same measure for `CC(C)(C)Cc1c(NC(=O)Cc2ccc(Cl)cc2)nc2ccc(C(F)(F)F)cn12` [Compound 27, 2-(4-chlorophenyl)-N-(3-neopentyl-6-(trifluoromethyl)imidazo[1,2-a]pyridin-2-yl)acetamide]: under 500 nM; for `CC(C)(C)CC(=O)Nc1nc2ccc(F)cn2c1Cc1ccc(C(F)(F)F)cc1` [Compound 28, N-(6-fluoro-3-(4-(trifluoromethyl)benzyl)imidazo[1,2-a]pyridin-2-yl)-3,3-dimethylbutanamide]: under 500 nM; for `CC(CC(=O)Nc1nc2ccc(F)cn2c1Cc1ccc(C(F)(F)F)cc1)C(F)(F)F` (stereo not drawn) [Compound 29, 4,4,4-trifluoro-N-(6-fluoro-3-(4-(trifluoromethyl)benzyl)imidazo[1,2-a]pyridin-2-yl)-3-methylbutanamide]: under 500 nM.
Turning to `CC(C)C(C)C(=O)Nc1nc2ccc(F)cn2c1Cc1ccc(C(F)(F)F)cc1` (stereo not drawn) [Compound 30, N-(6-fluoro-3-(4-(trifluoromethyl)benzyl)imidazo[1,2-a]pyridin-2-yl)-2,3-dimethylbutanamide], the EC50 was 500 to 3000 nM.
Regarding `CC(C)CCc1c(NC(=O)CC(C)(C)C)nc2ccc(C(F)(F)F)cn12` [Compound 31, N-(3-isopentyl-6-(trifluoromethyl)imidazo[1,2-a]pyridin-2-yl)-3,3-dimethylbutanamide], the EC50 was under 500 nM.
As to `CC(C)(C)CC(=O)Nc1nc2ccc(C(F)(F)F)cn2c1C1CCCCC1` [Compound 33, N-(3-cyclohexyl-6-(trifluoromethyl)imidazo[1,2-a]pyridin-2-yl)-3,3-dimethylbutanamide], the EC50 is under 500 nM.
Take `CC(C)(C)Cc1c(NC(=O)CC2(C)CCCC2)nc2ccc(C(F)(F)F)cn12` [Compound 34, 2-(1-methylcyclopentyl)-N-(3-neopentyl-6-(trifluoromethyl)imidazo[1,2-a]pyridin-2-yl)acetamide]: the EC50 was under 500 nM.
Still for that read-out and setting: the same measure for `CC(C)(C)Cc1c(NC(=O)Cc2cccc(Cl)c2)nc2ccc(C(F)(F)F)cn12` [Compound 35, 2-(3-chlorophenyl)-N-(3-neopentyl-6-(trifluoromethyl)imidazo[1,2-a]pyridin-2-yl)acetamide]: under 500 nM.
On the same count and under the same terms, the same measure for `CC(C)CCc1c(NC(=O)Cc2ccccc2)nc2ccc(C(F)(F)F)cn12` [Compound 36, N-(3-isopentyl-6-(trifluoromethyl)imidazo[1,2-a]pyridin-2-yl)-2-phenylacetamide]: under 500 nM.
In the case of `O=C(Cc1ccccc1)Nc1nc2ccc(C(F)(F)F)cn2c1CC1CCCCC1` [Compound 37, N-(3-(cyclohexylmethyl)-6-(trifluoromethyl)imidazo[1,2-a]pyridin-2-yl)-2-phenylacetamide], the EC50 is under 500 nM.
In the case of `CC(C)CCc1c(NC(=O)Cc2ccc(F)cc2)nc2ccc(C(F)(F)F)cn12` [Compound 39, 2-(4-fluorophenyl)-N-(3-isopentyl-6-(trifluoromethyl)imidazo[1,2-a]pyridin-2-yl)acetamide], the EC50 is under 500 nM.
As to `O=C(Cc1ccc(F)cc1)Nc1nc2ccc(C(F)(F)F)cn2c1CC1CCCCC1` [Compound 40, N-(3-(cyclohexylmethyl)-6-(trifluoromethyl)imidazo[1,2-a]pyridin-2-yl)-2-(4-fluorophenyl)acetamide], the EC50 was under 500 nM.
With `O=C(Cc1ccc(F)cc1)Nc1nc2ccc(C(F)(F)F)cn2c1C1CCCCC1` [Compound 41, N-(3-cyclohexyl-6-(trifluoromethyl)imidazo[1,2-a]pyridin-2-yl)-2-(4-fluorophenyl)acetamide], the EC50 is under 500 nM.
On the same count and under the same terms, the value for `CC(C)CCc1c(NC(=O)Cc2cccc(Cl)c2)nc2ccc(C(F)(F)F)cn12` [Compound 42, 2-(3-chlorophenyl)-N-(3-isopentyl-6-(trifluoromethyl)imidazo[1,2-a]pyridin-2-yl)acetamide] was under 500 nM; that for `O=C(Cc1cccc(Cl)c1)Nc1nc2ccc(C(F)(F)F)cn2c1CC1CCCCC1` [Compound 43, 2-(3-chlorophenyl)-N-(3-(cyclohexylmethyl)-6-(trifluoromethyl)imidazo[1,2-a]pyridin-2-yl)acetamide] was under 500 nM.
As for `O=C(Cc1cccc(Cl)c1)Nc1nc2ccc(C(F)(F)F)cn2c1C1CCCCC1` [Compound 44, 2-(3-chlorophenyl)-N-(3-cyclohexyl-6-(trifluoromethyl)imidazo[1,2-a]pyridin-2-yl)acetamide], the EC50 was under 500 nM.
Consider `CC(C)CCc1c(NC(=O)CC2(C)CCCC2)nc2ccc(C(F)(F)F)cn12` [Compound 45, N-(3-isopentyl-6-(trifluoromethyl)imidazo[1,2-a]pyridin-2-yl)-2-(1-methylcyclopentyl)acetamide], for which the EC50 was under 500 nM.

Still in this assay, the particulars now being: FLIPR assay, SH-SY5Y native cell line; Table 2; read-out: SH-SY5Y EC50.
For the compound “2-(3,4-dichlorophenyl)-N-(6-fluoro-3-(4-fluorophenyl)imidazo yl)acetamide [Compound 142]”, the EC50 was under 500 nM.
For the compound “2-(3-chlorophenyl)-N-(6-fluoro-3-(4-(trifluoromethoxy)phenyl)imidazo yl)acetamide [Compound 239]”, the EC50 is under 500 nM.
In the case of “3-tert-butoxy-N-(6-fluoro-3-(4-(trifluoromethoxy)phenyl)imidazo yl)propanamide [Compound 261]”, the EC50 is under 500 nM.

Staying with this assay, now noted: read-out: SH-SY5Y_EC50.
Regarding `CC(C)(C)CC(=O)Nc1nc2ccc(F)cn2c1C1CC1` [Compound 14, N-(3-cyclopropyl-6-fluoroimidazo[1,2-a]pyridin-2-yl)-3,3-dimethylbutanamide], the EC50 was found to be 2550 nM.
